In general, inhibition refers to the relative decrease from the control value, in per cent.

Experiment [1] deals with complement-mediated inactivation of amphotropic retroviral particles in human serum. As to the kind of experiment: Retrovirus killing assay in human serum preincubated with soluble carbohydrates. It counts as cell-based. As to conditions: for effect on complement-mediated retrovirus inactivation / retrovirus survival: 5 mg/ml carbohydrate preincubated with 40% human serum, titered on NIH/3T3 cells. On the procedure: (§1) RVVP samples were assayed for titer of infectious RVVPs on NIH/3T3 cells (ATCC designation CCL 163). 2.5×10^4 cells were plated per well in 6-well plates with 2 ml of DMEM containing 10% fetal bovine serum (D10). The medium in each well was replaced with 2 ml of D10 containing 8 μg/ml of polybrene and retroviral particles were added. Ten-fold dilutions were made from the original well and plates were incubated for 24 h at 37° C. Medium was removed and 2 ml of D10 containing 500 μg/ml of G418 (active weight) was added. The cells were maintained under selection for 7 days with 2 changes of medium during this period. Finally, medium was removed and colonies were stained with methylene blue saturated methanol for 15 min. followed by a brief rinse in water. Wells containing less than 100 colonies were counted to determine titers.
Retroviral vector particles, including those from PA317 or PA317/H-transferase cells, (approximately 500 CFU) were incubated for 30 min. at 37° C. in 100 μl of 40% primate sera diluted in Hank's balanced salt solution (HBSS) and subsequently titered on NIH/3T3 cells to assess retrovirus survival as described above. The different primate sera included human (Diamedix, Cambridge, Mass.), chimpanzee (Southwest Foundation for Research, San Antonio, Tex.), baboon, squirrel monkey, owl monkey and tamarin (all from the New England Regional Primate Research Center, Southborough, Mass.). Data were calculated as percent retrovirus survival in the various sera relative to the number of input CFU (determined by incubation of virus in 40% heat inactivated human serum). […] In the anti-αgalactosyl antibody depletion experiments, retroviral particles were preincubated with either anti-αgalactosyl antibody (90 μg/ml) or buffer alone (PBS; BioWhittaker, Walkersville, Md.) for 30 min. at 37° C. before the addition of either 40% human serum, 40% human serum depleted of anti-αgalactosyl antibodies or 40% squirrel monkey serum for an additional 30 min. incubation. Retrovirus survival was then assessed as described above.

Experiment [2] deals with inactivation of LXSN retroviral vector particles by human serum. As to the kind of experiment: Inactivation of LXSN retroviral vector particles in human serum in the presence of added sugars (Example 2). As to conditions: 0.3125, 0.625, 1.25, 2.5 and 5 mg/ml; 40% human serum; relative to samples without added sugars. In kind it is cell-based. On the procedure: as §1
LXSN retroviral vector particles were prepared as described above. Aliquots of a 40% solution of human serum in HBSS were then incubated for 15 minutes at room temperature with added sugars. The sugars added were D-glucose (Mallinckrodt, Paris, Ky.) and galactose alpha-1,3 galactose (Dextra Laboratories, Reading, England), and were added at concentrations of 0.3125, 0.625, 1.25, 2.5, and 5 mg/ml. […] The results of these titrations were calculated as fold increase in retroviral vector particle survival relative to the control samples, and are set forth in FIG. 2.

For the next experiment, the system named is Golgi α-mannosidase I. The conditions noted are these: addition of inhibitor; cited from earlier work.
For a further experiment, the target named is T1, α-glucosidase I (Homo sapiens, UniProt Q13724).
T1 sequence (Q13724 1-837): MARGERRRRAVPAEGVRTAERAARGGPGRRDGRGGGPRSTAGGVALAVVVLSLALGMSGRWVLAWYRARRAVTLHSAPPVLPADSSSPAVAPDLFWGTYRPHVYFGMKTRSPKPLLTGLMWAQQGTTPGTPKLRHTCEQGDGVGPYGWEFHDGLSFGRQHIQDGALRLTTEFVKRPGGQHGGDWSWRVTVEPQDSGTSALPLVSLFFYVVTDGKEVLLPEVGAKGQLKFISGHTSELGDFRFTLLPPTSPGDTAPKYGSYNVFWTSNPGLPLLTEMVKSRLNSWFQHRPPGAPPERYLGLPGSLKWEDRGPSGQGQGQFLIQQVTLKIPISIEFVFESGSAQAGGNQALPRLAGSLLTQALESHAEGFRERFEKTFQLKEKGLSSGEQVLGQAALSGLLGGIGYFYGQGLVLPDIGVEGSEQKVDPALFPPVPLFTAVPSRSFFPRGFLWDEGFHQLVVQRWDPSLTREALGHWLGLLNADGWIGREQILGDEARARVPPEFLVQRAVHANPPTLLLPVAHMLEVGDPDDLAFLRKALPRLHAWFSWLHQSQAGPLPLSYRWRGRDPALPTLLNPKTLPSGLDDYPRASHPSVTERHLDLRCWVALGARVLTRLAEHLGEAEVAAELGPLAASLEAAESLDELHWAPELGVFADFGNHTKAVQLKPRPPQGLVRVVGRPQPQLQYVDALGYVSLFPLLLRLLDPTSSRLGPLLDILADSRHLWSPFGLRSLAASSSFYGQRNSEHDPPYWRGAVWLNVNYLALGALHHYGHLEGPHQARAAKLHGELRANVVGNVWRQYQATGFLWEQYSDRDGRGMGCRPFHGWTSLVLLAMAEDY
The conditions noted are these: addition of inhibitor; cited from earlier work.

A further experiment concerns the target T2, Golgi α-mannosidase II (Homo sapiens, UniProt Q16706).
T2 sequence (Q16706 1-1144): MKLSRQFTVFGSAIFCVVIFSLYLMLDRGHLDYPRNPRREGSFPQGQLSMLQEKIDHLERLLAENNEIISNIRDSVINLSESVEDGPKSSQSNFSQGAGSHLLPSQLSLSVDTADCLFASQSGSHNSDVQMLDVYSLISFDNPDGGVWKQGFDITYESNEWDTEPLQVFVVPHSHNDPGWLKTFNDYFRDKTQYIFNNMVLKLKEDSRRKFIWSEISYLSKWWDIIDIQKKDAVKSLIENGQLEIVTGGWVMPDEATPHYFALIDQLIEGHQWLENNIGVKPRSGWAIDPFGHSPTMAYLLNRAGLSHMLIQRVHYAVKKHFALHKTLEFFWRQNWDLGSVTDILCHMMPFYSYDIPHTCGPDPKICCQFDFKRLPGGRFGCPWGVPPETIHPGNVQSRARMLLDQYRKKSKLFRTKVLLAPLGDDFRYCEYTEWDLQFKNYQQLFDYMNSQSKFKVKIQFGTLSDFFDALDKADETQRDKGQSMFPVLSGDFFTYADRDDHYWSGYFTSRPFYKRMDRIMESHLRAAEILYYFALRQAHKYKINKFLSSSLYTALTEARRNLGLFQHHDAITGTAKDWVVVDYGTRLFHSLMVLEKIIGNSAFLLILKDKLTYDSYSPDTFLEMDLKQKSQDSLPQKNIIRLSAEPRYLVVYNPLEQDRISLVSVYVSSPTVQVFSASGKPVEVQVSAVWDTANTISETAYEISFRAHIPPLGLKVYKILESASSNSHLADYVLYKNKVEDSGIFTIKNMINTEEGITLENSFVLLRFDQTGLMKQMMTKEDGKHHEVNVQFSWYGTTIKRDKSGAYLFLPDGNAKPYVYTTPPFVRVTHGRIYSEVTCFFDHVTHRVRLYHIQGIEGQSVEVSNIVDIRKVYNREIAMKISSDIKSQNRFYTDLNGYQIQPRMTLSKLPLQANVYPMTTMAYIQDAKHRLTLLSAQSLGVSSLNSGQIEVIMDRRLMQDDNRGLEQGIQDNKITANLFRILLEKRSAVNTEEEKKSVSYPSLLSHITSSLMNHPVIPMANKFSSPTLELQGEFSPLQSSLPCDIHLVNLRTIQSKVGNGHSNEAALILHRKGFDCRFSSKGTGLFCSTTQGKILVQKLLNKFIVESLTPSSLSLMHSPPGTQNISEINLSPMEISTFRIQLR
The conditions noted are these: addition of inhibitor; cited from earlier work.

On to `O=C[C@H](O)[C@@H](O)[C@H](O)[C@H](O)CO` [D(+) glucose], for which the “effect on complement-mediated retrovirus inactivation / retrovirus survival” value in experiment [1] is reported as “did not affect retrovirus survival”. Also, the “reduction of inactivation of retroviral vector particles by human serum” value in experiment [2] is reported as “not”. Consider `O=C[C@H](O)[C@@H](O)[C@@H](O)[C@H](O)CO` [D(+) galactose], for which the inhibition at 5000 µg/mL in experiment [1] (5 mg/ml, 40% human serum) was roughly 25%.

As to `OC[C@H]1NC[C@@H](O)[C@@H](O)[C@@H]1O` [1-deoxymannojirimycin], the “activity of Golgi α-mannosidase I” value in the experiment with Golgi α-mannosidase I was “greatly reduced”. As for `CN1C[C@H](O)[C@@H](O)[C@H](O)[C@H]1CO` [N-methyldeoxynojirimycin], the “activity of α-glucosidase I” value on α-glucosidase I was “greatly reduced”. For the compound `OC[C@H]1O[C@H](O[C@H]2[C@@H](O)[C@@H](CO)OC(O)[C@@H]2O)[C@H](O)[C@@H](O)[C@H]1O` (stereo partly drawn) [Galα1-3Gal, galactose α1-3 galactose], the “effect on complement-mediated retrovirus inactivation / retrovirus survival” value in experiment [1] is “completely blocked complement-mediated virolysis”. The “inhibition of retrovirus inactivation, dose dependence” value in experiment [1] (various concentrations, 40% human serum) is listed as “inhibited retrovirus inactivation in a dose-dependent manner”. Further, the “reduction of inactivation of retroviral vector particles by human serum” value in experiment [2] was “substantially reduces the inactivation of the retroviral vector particles”. For `O[C@H]1[C@H]2[C@H](O)CCCN2C[C@H]1O` [swainsonine], the “activity of Golgi α-mannosidase II” value on Golgi α-mannosidase II is reported as “greatly reduced”. Consider `OC[C@H]1O[C@@](CO)(O[C@H]2O[C@H](CO)[C@@H](O)[C@H](O)[C@H]2O)[C@@H](O)[C@@H]1O` [sucrose], for which the “effect on complement-mediated retrovirus inactivation / retrovirus survival” value in experiment [1] was “did not affect retrovirus survival”.

With `O[C@H]1[C@H](O)[C@@H](O)CN2CC[C@H](O)[C@H]12` [castanospermine], the “activity of α-glucosidase I” value on α-glucosidase I was “greatly reduced”. In the case of `C[C@@H]1O[C@@H](O)[C@@H](O)[C@H](O)[C@@H]1O` [α-L(−) fucose], the “effect on complement-mediated retrovirus inactivation / retrovirus survival” value in experiment [1] is reported as “did not affect retrovirus survival”.
